The source of these data is patent publication US7956070B2, “Piperidines as chemokine modulators (CCR)” (AstraZeneca AB, priority 2004, dated 2011).

Broadly, the pKa is the pH at which an ionisable group is half protonated.

Like-named read-outs stand apart in the source and are kept apart here.

One series concerns the target T1, human H1 receptor (Homo sapiens, UniProt P35367).
T1 construct: purchased Euroscreen SA, Brussels, Belgium ES-390-M; host or cells: recombinant CHO-K1 cells (membranes)
As to the kind of experiment: Histamine H1 receptor binding, competition displacement of [3H]-pyrilamine. As to conditions: 1 nM [3H]-pyrilamine, membranes from recombinant CHO-K1 cells expressing the human H1 receptor, 1 hour at room temperature; read-out: H1 pKi (converted). On the procedure: Histamine H1 receptor binding activity of compounds of the invention was assessed by competition displacement of 1 nM [3H]-pyrilamine (Amersham, Bucks, Product code TRK 608, specific activity 30 Ci/mmol) to 2 μg membranes prepared from recombinant CHO-K1 cells expressing the human H1 receptor (Euroscreen SA, Brussels, Belgium, product code ES-390-M) in assay buffer (50 mM Tris pH 7.4 containing 2 mM MgCl2, 250 mM sucrose and 100 mM NaCl) for 1 hour at room temperature.
The following compounds of the invention gave inhibition of [3H]pyrilimine binding: […]
For orientation: Displacement assays read how much labelled ligand stays bound in the presence of the test substance.

Series [1] in a line: pKa measurement (Sirius GLpKa). The class given is physicochemical. The method, then: The pKa of a compound of formula (I) is measured using one of the following methodologies.
The apparatus used consists of a Sirius GLpKa instrument with DPAS (Dip Probe Absorption Spectroscopy) attachment. Key elements of the apparatus are a Sirius pH electrode, stirrer, titrant dispensing tubes, a multi-tipped dispenser, motor driven dispensing syringes, fibre optic UV probe and diode array detector. In addition, solutions in PTFE containers of ionic strength adjusted (0.10 M KCl) distilled water, nominally 0.50 M HCl, nominally 0.50 M KOH and 80% v/v methanol:water are also housed within the instrument. The titration solutions are constantly purged with oxygen free nitrogen. The reservoir for the potassium hydroxide solution is further protected from atmospheric contamination by a soda-lime guard-tube. Samples are placed in titration vessels which in turn are placed in a movable autosampler tray (maximum capacity 48 samples). The electrode, stirrer, dispensing tubing/tips and DPAS probe are housed on a movable, automated z-tower unit, which, controlled by software, positions itself in the appropriate titration vessel when titrating. The Sirius GLpKa instrument is directly connected to a dedicated PC supporting software for assay setup and subsequent data analysis. Assays are set up using the GlpKaControl software and results are analysed using the pKaLOGP and pKaUV software on the PC. The software also allows determination of multiple pKas using complex curve fitting analyses.
Method B: Potentiometric Method
Two types of potentiometric titrations may be performed in order to determine a compound's pKa/pKas; a purely aqueous titration (recommended for fairly water soluble compounds) and a cosolvent titration, where variable amounts of methanol are added to the sample in addition to ionic strength adjusted water (recommended for compounds which are not soluble in water). For the latter, a value for the compound's pKa in pure ionic strength adjusted water can be estimated by the Yasuda-Shedlovsky procedure. This involves measuring the apparent pKa of the compound at three known weight percentages of methanol:water (transposed into reciprocals of the dielectric constants of the medium, 1/εr) and then extrapolating to 0 wt % methanol (1/εr=[…]).
The GLpKa instrument unit also houses two aqueous wash containers (containing distilled water), a waste beaker (to dispense extraneous solutions into) and a container holding pH 7.00 buffer solution for the electrode to be immersed in during periods between titrations. Each time a set of titrations is carried out, these solutions are replaced. Position 1 in the autosampler contains a titration vessel containing pH 7.00 buffer solution (changed for each titration set). For each titration set to be run, position 2 houses a titration vessel into which ionic strength adjusted water is dispensed (typically 15.00 mL). This in turn is adjusted to pH 1.80 with aqueous HCl and then titrated to pH 12.20 by gradual addition of aqueous KOH. This is referred to as a blank titration and is employed by the pKaLogP software in order to calibrate the pH electrode and to standardise the HCl solution, using the so-called four-plus parameter procedure. Periodically, (typically every 3 months, or when the titration solutions run low) the titration solutions are replaced and the KOH solution standardised against potassium hydrogen phthalate using a standardisation procedure within the GLpKaControl software. Between 1-2 mg of each sample must be accurately weighed out. Samples are placed in provided glass titration vessels. The weight of compound must be entered into the GLpKaControl software. […]

The mark [2] stands for this setting: ionic strength adjusted (0.10 M KCl) water, Method B: potentiometric method, read-out: pKa (measured using Method B).

T1 sequence (P35367 whole entry): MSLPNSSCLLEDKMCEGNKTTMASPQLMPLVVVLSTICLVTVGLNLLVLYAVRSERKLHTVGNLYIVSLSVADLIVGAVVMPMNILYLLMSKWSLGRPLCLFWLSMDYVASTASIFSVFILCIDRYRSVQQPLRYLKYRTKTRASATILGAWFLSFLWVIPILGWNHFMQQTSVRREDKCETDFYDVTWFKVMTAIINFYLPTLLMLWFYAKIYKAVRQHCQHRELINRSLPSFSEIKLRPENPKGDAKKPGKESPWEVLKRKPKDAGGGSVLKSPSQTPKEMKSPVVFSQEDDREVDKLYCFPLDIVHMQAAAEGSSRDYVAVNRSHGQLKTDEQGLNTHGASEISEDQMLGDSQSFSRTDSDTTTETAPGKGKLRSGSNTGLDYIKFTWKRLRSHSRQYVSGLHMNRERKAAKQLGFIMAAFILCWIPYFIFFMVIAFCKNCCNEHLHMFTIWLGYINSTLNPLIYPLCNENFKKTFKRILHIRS

For the compound `N#Cc1cc(C(=O)NC[C@@H](O)CN2CCC(Oc3ccc(Cl)c(Cl)c3)CC2)c(C(F)(F)F)[nH]c1=O` [Example 10, 5-Cyano-N-{(2R)-3-[4-(3,4-dichlorophenoxy)piperidin-1-yl]-2-hydroxypropyl}-6-oxo-2-(trifluoromethyl)-1,6-dihydropyridine-3-carboxamide], the Ki on human H1 receptor was 126 nM. Turning to `O=C(O)c1ccc(C(=O)NC[C@@H](O)CN2CCC(Oc3ccc(Cl)c(Cl)c3)CC2)c2ccccc12` [Example 20, 4-[({(2R)-3-[4-(3,4-Dichlorophenoxy)piperidin-1-yl]-2-hydroxypropyl}amino)-carbonyl]-1-naphthoic acid], the Ki at human H1 receptor is 200 nM.

In the case of `Cc1c(OC2CCN(C[C@H](O)CNC(=O)COc3cc(C(=O)O)ccc3Cl)CC2)ccc(Cl)c1Cl` [Example 44, 4-Chloro-3-[2-({(2R)-3-[4-(3,4-dichloro-2-methylphenoxy)piperidin-1-yl]-2-hydroxypropyl}amino)-2-oxoethoxy]benzoic acid], at human H1 receptor, the Ki is 12.6 nM. Regarding `O=C(NC[C@@H](O)CN1CCC(Oc2ccc(Cl)c(Cl)c2)CC1)c1oc(=O)[nH]c1C(F)(F)F` [Example 37, N-{(2R)-3-[4-(3,4-Dichlorophenoxy)piperidin-1-yl]-2-hydroxypropyl}-2-oxo-4-(trifluoromethyl)-2,3-dihydro-1,3-oxazole-5-carboxamide], the Ki on human H1 receptor was 200 nM.

Consider `CSc1[nH]nnc1C(=O)NC[C@@H](O)CN1CCC(Oc2ccc(Cl)c(Cl)c2)CC1` [Example 36, N-{(2R)-3-[4-(3,4-Dichlorophenoxy)piperidin-1-yl]-2-hydroxypropyl}-5-(methylthio)-1H-1,2,3-triazole-4-carboxamide], for which the pKa in series [1] (setting [2]) was determined as 5.5. On the same count and under the same terms, then `O=C(NC[C@@H](O)CN1CCC(Oc2ccc(Cl)c(Cl)c2)CC1)c1ccc(=O)[nH]c1C(F)(F)F` [Example 1, N-{(2R)-3-[4-(3,4-Dichlorophenoxy)piperidin-1-yl]-2-hydroxypropyl}-6-oxo-2-(trifluoromethyl)-1,6-dihydropyridine-3-carboxamide], with 5.9; and `N#Cc1cc(C(=O)NC[C@@H](O)CN2CCC(Oc3ccc(Cl)c(Cl)c3)CC2)c(-c2ccccc2)[nH]c1=O` [Example 12, 5-Cyano-N-{(2R)-3-[4-(3,4-dichlorophenoxy)piperidin-1-yl]-2-hydroxypropyl}-6-oxo-2-phenyl-1,6-dihydropyridine-3-carboxamide], with 3.

Consider `Cc1c(Cl)ccc(OC2CCN(C[C@H](O)CNC(=O)c3cc(C#N)c(=O)[nH]c3C(F)(F)F)CC2)c1Cl` [Example 11, 5-Cyano-N-{(2R)-3-[4-(2,4-dichloro-3-methylphenoxy)piperidin-1-yl]-2-hydroxypropyl}-6-oxo-2-(trifluoromethyl)-1,6-dihydropyridine-3-carboxamide], for which, in series [1] (setting [2]), the pKa was found to be 3. Regarding `O=C(NC[C@H](O)CN1CCC(Oc2ccc(Cl)c(Cl)c2)CC1)c1sc(=O)[nH]c1C(F)(F)F` [Example 28, N-{(2S)-3-[4-(3,4-Dichlorophenoxy)piperidin-1-yl]-2-hydroxypropyl}-2-oxo-4-(trifluoromethyl)-2,3-dihydro-1,3-thiazole-5-carboxamide], the Ki at human H1 receptor is 39.8 nM. For the compound `O=C(NC[C@@H](O)CN1CCC(Oc2ccc(Cl)c(Cl)c2)CC1)c1sc(=O)[nH]c1C(F)(F)F` [Example 4, N-{(2R)-3-[4-(3,4-Dichlorophenoxy)piperidin-1-yl]-2-hydroxypropyl}-2,3-dihydro-2-oxo-4-(trifluoromethyl)-5-thiazolecarboxamide], the pKa in series [1] (setting [2]) turned out to be 4.7.

As for `O=C(NC[C@@H](O)CN1CCC(Oc2ccc(Cl)c(Cl)c2)CC1)c1nn[nH]c1-c1ccc(F)cc1` [Example 26, N-{(2R)-3-[4-(3,4-Dichlorophenoxy)piperidin-1-yl]-2-hydroxypropyl}-5-(4-fluorophenyl)-1H-1,2,3-triazole-4-carboxamide], in series [1] (setting [2]), the pKa came out at 6.1. As to `O=C(NC[C@@H](O)CN1CCC(Oc2ccc(Cl)c(Cl)c2)CC1)c1nn[nH]c1C(F)(F)F` [Example 38, N-{(2R)-3-[4-(3,4-Dichlorophenoxy)piperidin-1-yl]-2-hydroxypropyl}-5-(trifluoromethyl)-1H-1,2,3-triazole-4-carboxamide], the pKa in series [1] (setting [2]) is 4.

As to `Cc1c(OC2CCN(C[C@H](O)CNC(=O)c3sc(=O)[nH]c3C(F)(F)F)CC2)ccc(C#N)c1Cl` [Example 40, N-{(2R)-3-[4-(3-Chloro-4-cyano-2-methylphenoxy)piperidin-1-yl]-2-hydroxypropyl}-2-oxo-4-(trifluoromethyl)-2,3-dihydro-1,3-thiazole-5-carboxamide], in series [1] (setting [2]), the pKa was found to be 4.7. Consider `CN(C[C@@H](O)CN1CCC(Oc2ccc(Cl)c(Cl)c2)CC1)C(=O)c1sc(=O)[nH]c1C(F)(F)F` [Example 5, N-{(2S)-3-[4-(3,4-Dichlorophenoxy)piperidin-1-yl]-2-hydroxypropyl}-N-methyl-2-oxo-4-(trifluoromethyl)-2,3-dihydro-1,3-thiazole-5-carboxamide], for which, on human H1 receptor, the Ki is 126 nM.

As to `CC(C)c1[nH]nnc1C(=O)NC[C@@H](O)CN1CCC(Oc2ccc(C#N)c(Cl)c2)CC1` [Example 31, N-{(2R)-3-[4-(3-Chloro-4-cyanophenoxy)piperidin-1-yl]-2-hydroxypropyl}-5-isopropyl-1H-1,2,3-triazole-4-carboxamide], the Ki on human H1 receptor was 158 nM. The same measure, in the same setting: as for `N#Cc1ccc(OC2CCN(C[C@H](O)CNC(=O)c3sc(=O)[nH]c3C(F)(F)F)CC2)cc1Cl` [Example 27, N-{(2R)-3-[4-(3-Chloro-4-cyanophenoxy)piperidin-1-yl]-2-hydroxypropyl}-2-oxo-4-(trifluoromethyl)-2,3-dihydro-1,3-thiazole-5-carboxamide], the figure is 251 nM. `CS(=O)(=O)Nc1nc(C(F)(F)F)c(C(=O)NC[C@@H](O)CN2CCC(Oc3ccc(Cl)c(Cl)c3)CC2)s1` [Example 21, N-{(2R)-3-[4-(3,4-Dichlorophenoxy)piperidin-1-yl]-2-hydroxypropyl}-2-[(methylsulfonyl)amino]-4-(trifluoromethyl)-1,3-thiazole-5-carboxamide]: the pKa in series [1] (setting [2]) was 7.5. In the case of `O=C(NC[C@@H](O)CN1CCC(Oc2ccc(Cl)c(Cl)c2)CC1)c1nn[nH]c1SCC(F)(F)F` [Example 19, N-{(2R)-3-[4-(3,4-Dichlorophenoxy)piperidin-1-yl]-2-hydroxypropyl}-5-[(2,2,2-trifluoroethyl)thio]-1H-1,2,3-triazole-4-carboxamide], in series [1] (setting [2]), the pKa was determined as 5.2.

`Cc1c(OC2CCN(C[C@H](O)CNC(=O)COc3cccc(C(=O)O)c3)CC2)ccc(Cl)c1Cl` [Example 46, 3-[2-({(2R)-3-[4-(3,4-Dichloro-2-methylphenoxy)piperidin-1-yl]-2-hydroxypropyl}amino)-2-oxoethoxy]benzoic acid]: in series [1] (method not stated, read-out: measured pKa), the pKa was determined as 2.6.

With `CN(c1[nH]nnc1C(=O)NC[C@@H](O)CN1CCC(Oc2ccc(Cl)c(Cl)c2)CC1)S(C)(=O)=O` [Example 39, N-{(2R)-3-[4-(3,4-Dichlorophenoxy)piperidin-1-yl]-2-hydroxypropyl}-5-[methyl(methylsulfonyl)amino]-1H-1,2,3-triazole-4-carboxamide], the Ki at human H1 receptor is 126 nM. On to `O=C(NC[C@@H](O)CN1CCC(Oc2ccc(Cl)c(Cl)c2)CC1)c1sc(=O)[nH]c1CC(F)(F)F` [Example 33, N-{(2R)-3-[4-(3,4-Dichlorophenoxy)piperidin-1-yl]-2-hydroxypropyl}-2-oxo-4-(2,2,2-trifluoroethyl)-2,3-dihydro-1,3-thiazole-5-carboxamide], for which, in series [1] (setting [2]), the pKa was determined as 6.6.
